# Assay results published in ChEMBL document CHEMBL1147900, “Immuno-stimulating properties of diosgenyl saponins isolated from Paris polyphylla” (Bioorg Med Chem Lett, 2007).
# Calls of active or inactive are those of the source. The calls are words filed in the database; no cut-off is given here.
# Legend:
# Assay type in all cases: functional, cell-based
# [1] = tested on: RAW; assay: Effect on NO production in mouse RAW 264.7 cells at 100 nM
# [2] = tested on: RAW; assay: Effect on phagocytic activity in mouse RAW 264.7 cells after 24 hrs
# [3] = tested on: RAW; assay: Induction of respiratory burst in mouse RAW 264.7 cells at 10 nM assessed as superoxide anion production after 2 hrs by NBT test
# [4] = tested on: RAW; assay: Effect on phagocytic activity in mouse RAW 264.7 cells at 10 uM after 24 hrs
SMILES,Activity [1],Activity [2],Activity [3],Activity [4]
C[C@@H]1CC[C@@]2(OC1)O[C@H]1C[C@H]3[C@@H]4CC=C5C[C@@H](O)CC[C@]5(C)[C@H]4CC[C@]3(C)[C@H]1[C@@H]2C,inactive,Active,inactive,
C[C@H]1CC[C@@]2(OC1)O[C@H]1C[C@H]3[C@@H]4CC=C5C[C@@H](O[C@@H]6O[C@@H](CO)[C@H](O[C@H]7O[C@H](C)[C@@H](O[C@H]8O[C@H](C)[C@@H](O)[C@H](O)[C@@H]8O)[C@H](O)[C@@H]7O)[C@@H](O)[C@@H]6O[C@@H]6O[C@@H](C)[C@@H](O)[C@H](O)[C@@H]6O)CC[C@]5(C)[C@H]4CC[C@]3(C)[C@H]1[C@@H]2C,Active,Active,Active,Active
